Measured values taken from patent EP0425235B1, “Cytotoxic agents comprising maytansinoids and their therapeutic use” (IMMUNOGEN INC, priority 1989, dated 1991).
Where two headings read alike, the source gives them in different places.

Columns and labels:
[1] = tested on: KB (human epidermoid carcinoma); assay: In vitro cytotoxicity, clonogenic assay (plating efficiency); type: cell-based; conditions: for fold more toxic than maytansine: KB and SKBR3 cells, ratio of IC50 values; for times less toxic than L counterpart: D-aminoacyl isomer vs L counterpart (6c, 6e), all three cell lines (KB, SKBR3, Namalwa)
Source text: (§1) Cytotoxicity of the maytansinoids and their antibody conjugates to non-adherent cell lines such as Namalwa and HL-60 can be measured by back-extrapolation of cell proliferation curves as described in Goldmacher et al, 135 J. Immunol. 3648-3651 (1985). Cytotoxicity of these compounds to adherent cell lines such as SKBR3 and KB can be determined by clonogenic assays as described in Goldmacher et al, 102 J. Cell Biol. 1312-1319 (1986).
(§2) The disulfide-containing maytansinoid drugs of the invention were evaluated for their ability to suppress proliferation of various human tumor cell lines in vitro. Two adherent cell lines KB (human epidermoid carcinoma) and SKBR3 (human breast tumor) and the non-adherent cell line, Namalwa (Burkitt's lymphoma) were used for the assessment of cytotoxicity of these compounds. Cells were exposed to the compounds for 24 hours and the surviving fractions of cells were measured in direct assays.
(§3) Cells of the human promyelocytic leukemia cell line, HL-60 (ATCC CCL 240) and the Burkitt's lymphoma cell line Namalwa (ATCC CRL 1432) were grown as suspension cultures in RPMI-1640 medium supplemented with 10% fetal calf serum and 2 mM L-glutamine. All other cell lines described below were grown as adherent cultures. Human epidermoid carcinoma cell line, KB (ATCC CCL 17), human renal carcinoma cell line A498 (ATCC HTB 44), human colon adenocarcinoma cell lines SW620 (ATCC CCL 227) and HT-29 (ATCC HTB 38) were grown in RPMI-1640 medium supplemented with 10% fetal calf serum and 2 mM L-glutamine. Human breast carcinoma SKBR3 cells (ATCC HTB 30) were grown in DMEM supplemented with 15% fetal calf serum containing 2 mM glutamine and the human ovarian adenocarcinoma cell line OVCAR3 (ATCC HTB 161) was grown in RPMI-1640 medium supplemented with 10% fetal calf serum containing 10 µg/ml insulin and 2 mM L-glutamine.
(§4) Cytotoxicity assays were performed in the respective media described above. The cytotoxicity of the maytansinoids and their antibody conjugates to HL-60 and Namalwa cells was measured by back-extrapolation of cell proliferation curves. Cytotoxicity of these compounds to the rest of the cell lines was determined using a clonogenic assay as previously described.

[2] = tested on: SKBR3 (human breast tumor); assay: as above; type: cell-based
Source text: as §1
as §2, with “Cells were exposed to the compounds for 24 hours and the surviving fractions of cells were measured in direct assays.” left out
as §3, §4

[3] = tested on: Namalwa (Burkitt's lymphoma); assay: In vitro cytotoxicity, growth back-extrapolation; type: cell-based, human
Source text: as §1, §2, §3, §4

[4] = tested on: SW620 (Colon adenocarcinoma); assay: In vitro cytotoxicity, clonogenic assay; type: cell-based, human; conditions: for IC50: Homo sapiens, read-out: IC50(24hr.exposure)
Procedure: as §3, §4

A498 (Renal carcinoma) = assay: In vitro cytotoxicity, clonogenic assay; type: cell-based, human; conditions: for IC50: Homo sapiens, A498, 24hr exposure
Procedure: (§5) Since the methyldithio-maytansinoids are even more toxic than maytansine to solid tumor cell lines like KB and SKBR3, a wider panel of solid tumor cell lines was tested in a manner analogous to that described above to see whether this was a general phenomenon.
as §3, §4

[5] = tested on: Ovcar3 (Ovarian carcinoma); assay: In vitro cytotoxicity, clonogenic assay; conditions: for IC50: Homo sapiens, OVCAR-3, 24 h, read-out: IC50(24hr.exposure)
Procedure: as §3, §4

[6] = tested on: HL60(Promyelocytic leukemia); assay: In vitro cytotoxicity, back-extrapolation of cell proliferation curves; type: cell-based; conditions: Homo sapiens, HL-60; HL60, 24hr exposure
Procedure: as §5
as §3, with “Human breast carcinoma SKBR3 cells (ATCC HTB 30) were grown in DMEM supplemented with 15% fetal calf serum containing 2 mM glutamine and the human ovarian adenocarcinoma cell line OVCAR3 (ATCC HTB 161) was grown in RPMI-1640 medium supplemented with 10% fetal calf serum containing 10 µg/ml insulin and 2 mM L-glutamine.” left out
as §4

L1210 cells = L1210 cells in vitro; cited from earlier work
[7] = tested on: P388, L1210, and LY5178 murine leukemic cell suspensions; conditions: P388, L1210 and LY5178, P388 most sensitive; cited from earlier work
[8] = tested on: human acute lymphoblastic leukemia line C.E.M.; conditions: cited from earlier work
[9] = tested on: P388 lymphocytic leukemia system; conditions: cited from earlier work
[10] = Homo sapiens, 24 h, KB, 24 hour exposure
[11] = Homo sapiens, SK-BR-3, 24 h, SKBR3, 24 hour exposure
[12] = Homo sapiens, 24 h, NAMALWA, 24 hour exposure, read-out: IC50
[13] = Homo sapiens, 24 h, Namalwa, 24hr exposure (Table 2), read-out: IC50(24hr.exposure)

Structure (SMILES): COc1cc2cc(c1Cl)N(C)C(=O)C[C@H](OC(=O)[C@H](C)N(C)C(=O)CCS)[C@]1(C)O[C@H]1[C@H](C)[C@@H]1C[C@@](O)(NC(=O)O1)[C@H](OC)/C=C/C=C(\C)C2 [Compound 7b]
- IC50 [1, 10]: 0.6 nM
- IC50 [2, 11]: < 0.01 nM
- IC50 [3, 12]: 10 nM

Structure (SMILES): COc1cc2cc(c1Cl)N(C)C(=O)C[C@H](OC(=O)[C@H](C)N(C)C(=O)CCSSC)[C@]1(C)O[C@H]1[C@H](C)[C@@H]1C[C@@](O)(NC(=O)O1)[C@H](OC)/C=C/C=C(\C)C2 [Compound 6b]
- IC50 [1, 10]: ≤ 0.01 nM
- IC50 ([1]; Homo sapiens, 24 h, read-out: IC50(24hr.exposure), KB, 24hr exposure (Table 2)): 0.011 nM
- fold more toxic than maytansine [1]: 3-10 fold
- IC50 [2, 11]: ≤ 0.01 nM
- IC50 ([2]; SKBR3, 24 hour exposure): 0.011 nM
- IC50 ([2]; SKBR3, 72hr exposure): 1x10^-13 Molar
- IC50 [3, 13]: 6 nM
- IC50 ([4]; SW-620, 24 h): 0.04 nM
- IC50 (A498 (Renal carcinoma)): 0.1 nM
- IC50 [5]: 0.05 nM
- cytotoxicity relative to maytansine ([5]; OVCAR3): twice as cytotoxic
- IC50 [6]: 0.8 nM

Structure (SMILES): COc1cc2cc(c1Cl)N(C)C(=O)C[C@H](OC(=O)[C@H](C)N(C)C(=O)CCCSSC)[C@]1(C)O[C@H]1[C@H](C)[C@@H]1C[C@@](O)(NC(=O)O1)[C@H](OC)/C=C/C=C(\C)C2 [Compound 6c]
- IC50 [1, 10]: ≤ 0.01 nM
- fold more toxic than maytansine [1]: 3-10 fold
- IC50 ([1]; KB, 24 hour exposure): 0.0085 nM
- IC50 [3, 12]: ≥ 3 nM
- IC50 ([3]; NAMALWA, 24 hour exposure, read-out: IC50): 3.2 nM

Structure (SMILES): COc1cc2cc(c1Cl)N(C)C(=O)C[C@H](OC(=O)[C@H](C)N(C)C(C)=O)[C@]1(C)O[C@H]1[C@H](C)[C@@H]1C[C@@](O)(NC(=O)O1)[C@H](OC)/C=C/C=C(\C)C2 [Compound 1a, maytansine, reference compound]
- IC50 ([1]; Homo sapiens, 24 h, KB, 24 hour exposure, read-out: IC50): 0.03 nM
- IC50 ([1]; Homo sapiens, 24 h, KB, 24hr exposure (Table 2), read-out: IC50(24hr.exposure)): 0.034 nM
- IC50 ([2]; Homo sapiens, SK-BR-3, 24 h, SKBR3, 24 hour exposure, read-out: IC50): 0.1 nM
- IC50 ([2]; Homo sapiens, SK-BR-3, 24 h, SKBR3, 24hr exposure (Table 2), read-out: IC50(24hr.exposure)): 0.11 nM
- IC50 [3, 12]: 0.4 nM
- IC50 [3, 13]: 0.4 nM
- IC50 ([4]; SW-620, SW620, 24hr exposure): > 0.1 nM
- surviving fraction ([4]; SW620, at 1x10^-10 M): 100%
- surviving fraction (A498 (Renal carcinoma); A498, at 1x10^-10 M): 100%
- IC50 (A498 (Renal carcinoma)): > 0.1 nM
- IC50 [5]: 0.1 nM
- IC50 [6]: 0.5 nM
- cells accumulating in mitosis (L1210 cells): 67%
- inhibited at doses of [7]: 10^-3 to 10^-7 microgram/ml
- inhibited by concentrations as low as [8]: 10^-7 microgram/ml
- dosage range over which tumor growth was inhibited [9]: 50- to 100 fold

Structure (SMILES): COc1cc2cc(c1Cl)N(C)C(=O)C[C@H](OC(=O)[C@@H](C)N(C)C(=O)CCSSc1ccccc1)[C@]1(C)O[C@H]1[C@H](C)[C@@H]1C[C@@](O)(NC(=O)O1)[C@H](OC)/C=C/C=C(\C)C2 [Compound 6f]
- times less toxic than L counterpart [1]: ≥ 20 times
- IC50 [1, 10]: 2 nM
- IC50 [3, 12]: 8 nM

Structure (SMILES): COc1cc2cc(c1Cl)N(C)C(=O)C[C@H](OC(=O)[C@@H](C)N(C)C(=O)CCCSSC)[C@]1(C)O[C@H]1[C@H](C)[C@@H]1C[C@@](O)(NC(=O)O1)[C@H](OC)/C=C/C=C(\C)C2 [Compound 6d]
- times less toxic than L counterpart [1]: ≥ 20 times
- IC50 [1, 10]: 0.19 nM
- IC50 [3, 12]: 13 nM

Structure (SMILES): COc1cc2cc(c1Cl)N(C)C(=O)C[C@H](OC(=O)[C@H](C)N(C)C(=O)CCSSc1ccccc1)[C@]1(C)O[C@H]1[C@H](C)[C@@H]1C[C@@](O)(NC(=O)O1)[C@H](OC)/C=C/C=C(\C)C2 [Compound 6e]
- IC50 [1, 10]: 0.1 nM
- IC50 [3, 12]: 0.6 nM
